Data on two compounds can be found in ChEMBL document CHEMBL1765002, “Inhibitors of the oncogenic transcription factor AP-1 from Podocarpus latifolius” (J Nat Prod, 2011).

For the assay, the target named is Transcription factor Jun (Homo sapiens, UniProt P05412). Kind of assay: Inhibition of TPA-induced AP-1 activation in cells expressing beta-lactamase after 18 hrs using FRET substrate by cell-based high-throughput screening assay.
Transcription factor Jun, sequence (P05412 whole entry): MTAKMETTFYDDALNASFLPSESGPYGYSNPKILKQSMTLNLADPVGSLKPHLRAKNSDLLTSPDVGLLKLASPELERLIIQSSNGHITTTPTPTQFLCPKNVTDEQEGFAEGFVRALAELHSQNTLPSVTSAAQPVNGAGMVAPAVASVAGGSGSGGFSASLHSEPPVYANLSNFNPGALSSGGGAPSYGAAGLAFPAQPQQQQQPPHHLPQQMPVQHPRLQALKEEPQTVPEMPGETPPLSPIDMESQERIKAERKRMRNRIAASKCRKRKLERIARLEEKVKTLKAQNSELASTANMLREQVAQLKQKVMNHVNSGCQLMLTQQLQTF

In turn, `CC(C)[C@H]1OC(=O)C=C2C1=C[C@H]1OC(=O)[C@@]3(C)CCC[C@@]2(C)[C@@H]13` [NAGILACTONE F] showed an IC50 of 1500 nM.
For `CC(C)[C@H]1OC(=O)C=C2[C@]3(C)[C@H]4[C@H](OC(=O)[C@@]4(C)[C@@H](O)[C@H]4O[C@H]43)[C@H]3O[C@]213` [INUMAKILACTONE], the IC50 came to 4000 nM.

As usually defined, the IC50 is the concentration at which inhibition is half-maximal. High values mean lower potency, low ones higher potency.
